Results reported in PubChem BioAssay AID248 (DTP/NCI, 2004).
Several values for one entry are separate records, joined by “and”; a condition that tells them apart may be missing. Equal entries are not always repeated. Toxic doses and inconclusive results are not listed. No stated cut-off is given here; in the data, active means T/C of 150% or more; inactive means T/C below 125%.

Test system: L1210 leukemia ip in BDF1 mice, survival T/C
Assay: NCI In Vivo Anticancer Drug Screen. Data for tumor model L1210 Leukemia (intraperitoneal) in B6D2F1 (BDF1) mice
Details: endpoint: mean survival time, higher = longer survival
Summary of the method: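 Ratio derived from survival: compound-dosed mice over vehicle-dosed mice, all bearing a transplantable tumor.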

[1] = dose: 100.0 mg/kg/injection, schedule: Q01DX001 (ip), vehicle: saline
[2] = dose: 200.0 mg/kg/injection, schedule: Q01DX001 (ip), vehicle: saline
[3] = dose: 400.0 mg/kg/injection, schedule: Q01DX001 (ip), vehicle: saline
[4] = dose: 100.0 mg/kg/injection, schedule: Q04DX003 (ip), vehicle: Klucel (hydroxypropylcellulose) (HPC)
[5] = dose: 200.0 mg/kg/injection, schedule: Q04DX003 (ip), vehicle: Klucel (hydroxypropylcellulose) (HPC)
[6] = dose: 400.0 mg/kg/injection, schedule: Q04DX003 (ip), vehicle: Klucel (hydroxypropylcellulose) (HPC)
[7] = dose: 100.0 mg/kg/injection, schedule: Q04DX003 (ip), vehicle: saline with Tween-80
[8] = dose: 200.0 mg/kg/injection, schedule: Q04DX003 (ip), vehicle: saline with Tween-80
[9] = dose: 400.0 mg/kg/injection, schedule: Q04DX003 (ip), vehicle: saline with Tween-80

Measured: T/C

CC(=O)c1ccc(N=Nc2ccc(N(C)C)cc2)cc1
inactive: dose: 100.0 mg/kg/injection, schedule: Q01DX009 (ip), vehicle: carboxymethylcellulose (CMC) 100 % of control and 110 % of control | dose: 100.0 mg/kg/injection, schedule: Q04DX002 (ip), vehicle: carboxymethylcellulose (CMC) 100 % of control | dose: 100.0 mg/kg/injection, schedule: Q04DX003 (ip), vehicle: carboxymethylcellulose (CMC) 100 % of control | dose: 200.0 mg/kg/injection, schedule: Q01DX009 (ip), vehicle: carboxymethylcellulose (CMC) 98 % of control and 102 % of control | dose: 200.0 mg/kg/injection, schedule: Q04DX002 (ip), vehicle: carboxymethylcellulose (CMC) 93 % of control | dose: 200.0 mg/kg/injection, schedule: Q04DX003 (ip), vehicle: carboxymethylcellulose (CMC) 101 % of control | dose: 400.0 mg/kg/injection, schedule: Q01DX009 (ip), vehicle: carboxymethylcellulose (CMC) 95 % of control and 90 % of control | dose: 400.0 mg/kg/injection, schedule: Q04DX002 (ip), vehicle: carboxymethylcellulose (CMC) 88 % of control | dose: 400.0 mg/kg/injection, schedule: Q04DX003 (ip), vehicle: carboxymethylcellulose (CMC) 101 % of control

Cc1cc(N=C2C=C(Br)C(=O)C(Br)=C2)cc(CN(CC(=O)O)CC(=O)O)c1O
inactive: [1] 105 % of control | [2] 111 % of control | [3] 100 % of control

O=S(=O)(Cl)c1ccccc1S(=O)(=O)Cl
inactive: [4] 95 % of control | [5] 93 % of control | [6] 86 % of control

Cc1cccc(C)c1NC(=S)N1CCC(CCCC2CCN(C(=S)Nc3c(C)cccc3C)CC2)CC1
inactive: dose: 100.0 mg/kg/injection, schedule: Q01DX009 (ip), vehicle: saline with Tween-80 93 % of control and 98 % of control | dose: 200.0 mg/kg/injection, schedule: Q01DX009 (ip), vehicle: saline with Tween-80 95 % of control and 105 % of control | dose: 400.0 mg/kg/injection, schedule: Q01DX009 (ip), vehicle: saline with Tween-80 93 % of control and 98 % of control

c1ccc(N=NC2(c3ccccc3)CCC(c3ccccc3)=NN2c2ccccc2)cc1 (stereo unspecified)
inactive: [7] 100 % of control | [8] 89 % of control | [9] 93 % of control

O/N=C1\CCCC\C1=N/O.O/N=C1\CCCC\C1=N/O.[Pd]
inactive: dose: 100.0 mg/kg/injection, schedule: Q01DX009 (ip), vehicle: other 94 % of control | dose: 100.0 mg/kg/injection, schedule: Q04DX003 (ip), vehicle: other 102 % of control | dose: 200.0 mg/kg/injection, schedule: Q01DX009 (ip), vehicle: other 107 % of control | dose: 200.0 mg/kg/injection, schedule: Q04DX003 (ip), vehicle: other 98 % of control | dose: 400.0 mg/kg/injection, schedule: Q01DX009 (ip), vehicle: other 91 % of control | dose: 400.0 mg/kg/injection, schedule: Q04DX003 (ip), vehicle: other 90 % of control

O=S(=O)(O)c1ccc(-c2nc3ccccc3[nH]2)cc1
inactive: dose: 50.0 mg/kg/injection, schedule: Q01DX001 (ip), vehicle: saline 104 % of control | [1] 98 % of control | dose: 100.0 mg/kg/injection, schedule: Q01DX009 (ip), vehicle: Klucel (hydroxypropylcellulose) (HPC) 101 % of control | [4] 95 % of control | [2] 93 % of control | dose: 200.0 mg/kg/injection, schedule: Q01DX009 (ip), vehicle: Klucel (hydroxypropylcellulose) (HPC) 96 % of control | [5] 103 % of control | [3] 95 % of control | dose: 400.0 mg/kg/injection, schedule: Q01DX009 (ip), vehicle: Klucel (hydroxypropylcellulose) (HPC) 96 % of control | [6] 98 % of control

CCN(CC)C(=O)Cn1ccc(O)cc1=O
inactive: [7] 109 % of control | [8] 98 % of control | [9] 104 % of control

Cc1cccc(C)c1Nc1cc(=O)[nH]c(=O)[nH]1
inactive: dose: 75.0 mg/kg/injection, schedule: Q01DX001 (ip), vehicle: saline with Tween-80 106 % of control | dose: 150.0 mg/kg/injection, schedule: Q01DX001 (ip), vehicle: saline with Tween-80 89 % of control | dose: 300.0 mg/kg/injection, schedule: Q01DX001 (ip), vehicle: saline with Tween-80 96 % of control

N#Cc1cc(C(Cl)(Cl)Cl)ccc1C(Cl)(Cl)Cl
inactive: [4] 97 % of control | [5] 95 % of control | [6] 90 % of control

CC(=O)[C@H]1CC[C@H]2[C@@H]3C[C@H](C)C4=CC(=O)CC[C@]4(C)[C@H]3C(=O)C[C@]12C
inactive: dose: 20.0 mg/kg/injection, schedule: Q01DX009 (ip), vehicle: carboxymethylcellulose (CMC) 93 % of control | dose: 25.0 mg/kg/injection, schedule: Q01DX015 (sc), vehicle: steriod suspending solution 104 % of control | dose: 32.0 mg/kg/injection, schedule: Q03HX008 (ip), vehicle: Klucel (hydroxypropylcellulose) (HPC) 93 % of control | dose: 32.0 mg/kg/injection, schedule: Q03HX016 (ip), vehicle: Klucel (hydroxypropylcellulose) (HPC) 92 % of control | dose: 32.0 mg/kg/injection, schedule: Q03HX024 (ip), vehicle: Klucel (hydroxypropylcellulose) (HPC) 97 % of control | dose: 40.0 mg/kg/injection, schedule: Q01DX009 (ip), vehicle: carboxymethylcellulose (CMC) 96 % of control | dose: 50.0 mg/kg/injection, schedule: Q01DX015 (sc), vehicle: steriod suspending solution 96 % of control | dose: 64.0 mg/kg/injection, schedule: Q03HX008 (ip), vehicle: Klucel (hydroxypropylcellulose) (HPC) 92 % of control | dose: 64.0 mg/kg/injection, schedule: Q03HX016 (ip), vehicle: Klucel (hydroxypropylcellulose) (HPC) 94 % of control | dose: 64.0 mg/kg/injection, schedule: Q03HX024 (ip), vehicle: Klucel (hydroxypropylcellulose) (HPC) 93 % of control | dose: 67.0 mg/kg/injection, schedule: Q01DX Z (sc), vehicle: steriod suspending solution 103 % of control | dose: 80.0 mg/kg/injection, schedule: Q01DX Z (sc), vehicle: steriod suspending solution 106 % of control | dose: 100.0 mg/kg/injection, schedule: Q01DX015 (sc), vehicle: steriod suspending solution 98 % of control | dose: 100.0 mg/kg/injection, schedule: Q01DX Z (sc), vehicle: steriod suspending solution 109 % of control | dose: 120.0 mg/kg/injection, schedule: Q01DX Z (sc), vehicle: steriod suspending solution 101 % of control | dose: 123.0 mg/kg/injection, schedule: Q01DX009 (ip), vehicle: Klucel (hydroxypropylcellulose) (HPC) 100 % of control | dose: 123.0 mg/kg/injection, schedule: Q03HX008 (ip), vehicle: Klucel (hydroxypropylcellulose) (HPC) 95 % of control | dose: 123.0 mg/kg/injection, schedule: Q03HX016 (ip), vehicle: Klucel (hydroxypropylcellulose) (HPC) 93 % of control | dose: 123.0 mg/kg/injection, schedule: Q03HX024 (ip), vehicle: Klucel (hydroxypropylcellulose) (HPC) 98 % of control | dose: 150.0 mg/kg/injection, schedule: Q01DX Z (sc), vehicle: steriod suspending solution 106 % of control | dose: 160.0 mg/kg/injection, schedule: Q01DX009 (ip), vehicle: carboxymethylcellulose (CMC) 93 % of control | dose: 180.0 mg/kg/injection, schedule: Q01DX Z (sc), vehicle: steriod suspending solution 97 % of control | dose: 200.0 mg/kg/injection, schedule: Q01DX015 (sc), vehicle: steriod suspending solution 102 % of control and 104 % of control | dose: 220.0 mg/kg/injection, schedule: Q01DX Z (sc), vehicle: steriod suspending solution 97 % of control | dose: 255.0 mg/kg/injection, schedule: Q01DX001 (ip), vehicle: Klucel (hydroxypropylcellulose) (HPC) 96 % of control | dose: 255.0 mg/kg/injection, schedule: Q01DX009 (ip), vehicle: Klucel (hydroxypropylcellulose) (HPC) 103 % of control | dose: 255.0 mg/kg/injection, schedule: Q04DX003 (ip), vehicle: Klucel (hydroxypropylcellulose) (HPC) 97 % of control | dose: 255.0 mg/kg/injection, schedule: Q08DX002 (ip), vehicle: Klucel (hydroxypropylcellulose) (HPC) 104 % of control | dose: 270.0 mg/kg/injection, schedule: Q01DX Z (sc), vehicle: steriod suspending solution 89 % of control | dose: 320.0 mg/kg/injection, schedule: Q01DX009 (ip), vehicle: carboxymethylcellulose (CMC) 87 % of control | dose: 330.0 mg/kg/injection, schedule: Q01DX Z (sc), vehicle: steriod suspending solution 100 % of control | dose: 400.0 mg/kg/injection, schedule: Q01DX015 (sc), vehicle: steriod suspending solution 102 % of control | dose: 495.0 mg/kg/injection, schedule: Q01DX Z (sc), vehicle: steriod suspending solution 94 % of control | dose: 512.0 mg/kg/injection, schedule: Q08DX002 (ip), vehicle: Klucel (hydroxypropylcellulose) (HPC) 103 % of control | dose: 640.0 mg/kg/injection, schedule: Q01DX009 (ip), vehicle: carboxymethylcellulose (CMC) 92 % of control
